Results taken from article PMC6385358, “Discovery of ((1,2,4-oxadiazol-5-yl)pyrrolidin-3-yl)ureidyl derivatives as selective non-steroidal agonists of the G-protein coupled bile acid receptor-1” (Scientific Reports, 2019).

Experiments:
PPARα = molecular target: T1, PPARα (Homo sapiens, UniProt Q07869); assay: Luciferase reporter specificity assay versus PPARα on HepG2 cells; format: cell-based; conditions: 10 μM
T1 construct: host or cells: HepG2
T1 sequence (Q07869 1-468): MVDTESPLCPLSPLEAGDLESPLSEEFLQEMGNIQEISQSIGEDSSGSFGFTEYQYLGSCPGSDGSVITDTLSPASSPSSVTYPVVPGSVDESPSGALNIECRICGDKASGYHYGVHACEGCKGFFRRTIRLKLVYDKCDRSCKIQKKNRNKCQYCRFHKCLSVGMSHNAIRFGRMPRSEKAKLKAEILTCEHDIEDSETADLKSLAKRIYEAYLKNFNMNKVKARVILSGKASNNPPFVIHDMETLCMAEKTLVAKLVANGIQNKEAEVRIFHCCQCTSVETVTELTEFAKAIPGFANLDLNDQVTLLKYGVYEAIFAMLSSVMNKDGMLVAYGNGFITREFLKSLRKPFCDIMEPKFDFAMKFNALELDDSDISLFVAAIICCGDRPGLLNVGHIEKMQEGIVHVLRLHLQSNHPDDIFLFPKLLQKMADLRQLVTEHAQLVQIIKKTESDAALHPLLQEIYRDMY
Procedure: (§1) The activity of compounds 1–14 on GPBAR1 was evaluated in a luciferase reporter assay using HEK-293T cells transfected with GPBAR1. The efficacy of tested compounds (Table 1) was measured using taurolithocholic acid (TLCA) as GPBAR1 reference compound[10],[11]. Each compound was tested at the concentration of 10 μM and transactivation activity of TLCA on a cAMP responsive element (CRE) (i.e. TGR5/GPBAR1) was considered equal to 100%. […] Thus, 9 and 10 (Table 1) turned out to be the most promising derivatives considering their low EC50 values and high activity efficacy. To further characterize the pharmacological properties of these compounds, we expanded their in vitro profile to common off-targets for bile acid receptor ligands.
(§2) Figure 3 (A) Dose response curves of compounds 9 and 10 (concentrations ranging from 1 to 50 µM) in luciferase reporter assay. (B) Real-time PCR analysis of mRNA expression of Pro-glucagon in GLUTag cells treated with compounds 9 and 10 at 10 μM, and TLCA used as a positive control (10 μM). Values are normalized to GAPDH and are expressed relative to those of not treated cells (NT) which are arbitrarily settled to 1. The relative mRNA expression is expressed as 2^(−ΔΔCt). […]
(§3) The specificity of compounds 9 and 10 versus PPARα, PPARγ, LXRα, LXRβ, FXR and PXR was determined in luciferase reporter gene assays as previously reported[29],[31].

LXRβ = molecular target: T2, LXRβ (Homo sapiens, UniProt P55055); assay: Luciferase reporter specificity assay versus LXRβ on HepG2 cells; format: cell-based; conditions: 10 μM
T2 construct: host or cells: HepG2
T2 sequence (P55055 1-460): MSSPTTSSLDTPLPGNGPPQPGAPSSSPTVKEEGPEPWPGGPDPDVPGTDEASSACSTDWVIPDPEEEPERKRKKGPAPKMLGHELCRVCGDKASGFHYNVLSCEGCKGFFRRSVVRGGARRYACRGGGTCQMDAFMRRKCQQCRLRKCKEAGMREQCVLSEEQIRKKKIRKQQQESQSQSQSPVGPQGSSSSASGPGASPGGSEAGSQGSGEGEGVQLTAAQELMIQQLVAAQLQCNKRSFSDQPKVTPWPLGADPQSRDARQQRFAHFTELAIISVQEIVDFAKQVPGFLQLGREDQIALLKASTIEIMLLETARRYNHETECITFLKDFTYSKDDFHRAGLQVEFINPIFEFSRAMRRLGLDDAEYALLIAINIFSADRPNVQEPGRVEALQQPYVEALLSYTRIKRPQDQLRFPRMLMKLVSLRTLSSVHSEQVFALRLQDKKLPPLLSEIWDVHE
Procedure: as §1, §2, §3

LXRα = molecular target: T3, LXRα (Homo sapiens, UniProt Q13133); assay: Luciferase reporter specificity assay versus LXRα on HepG2 cells; format: cell-based; conditions: 10 μM
T3 construct: host or cells: HepG2
T3 sequence (Q13133 1-447): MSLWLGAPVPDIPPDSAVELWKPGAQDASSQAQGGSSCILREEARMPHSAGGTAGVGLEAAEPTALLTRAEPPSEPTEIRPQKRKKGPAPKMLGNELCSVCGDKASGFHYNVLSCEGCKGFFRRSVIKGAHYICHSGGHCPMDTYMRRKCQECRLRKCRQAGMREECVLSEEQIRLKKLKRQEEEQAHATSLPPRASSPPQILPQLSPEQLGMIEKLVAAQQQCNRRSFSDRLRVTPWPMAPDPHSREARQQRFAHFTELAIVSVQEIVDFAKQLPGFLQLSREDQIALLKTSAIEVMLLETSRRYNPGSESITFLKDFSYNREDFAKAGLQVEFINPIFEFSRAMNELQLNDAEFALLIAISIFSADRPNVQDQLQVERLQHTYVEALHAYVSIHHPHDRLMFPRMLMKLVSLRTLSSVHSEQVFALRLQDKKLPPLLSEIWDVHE
Procedure: as §1, §2, §3

[1] = LogD measurement (octanol/PBS pH 7.4); format: physicochemical; conditions: octanol/PBS (1/1)
Procedure: Chromatography was performed using a HPLC–MS system Q-ToF Premiere instrument (Waters, Co.) equipped with an ESI source and Waters pump systems. The mixture was separated on a Luna 5 µm C8(2) 100 °A 150 × 2 mm from Phenomenex. The mobile phase consisted of 0.2% formic acid (FA) in water as solvent A and 0.2% FA in acetonitrile as solvent B at a flow rate of 200 μL/min. The gradient was as follows: 0–2 min (75% A and 25% B), 2–20 min (5% A and 95% B), 20–30 min (75% A and 25% B). The detection of analytes was achieved by ESI in the positive mode with the appropriate MRM transition or by UV system at 220 nm.
Ten μL of a 10 mM solution in DMSO of the compound was diluted in 490 μL of a 1/1 octanol/PBS mixture at pH 7.4. The mixture was gently shaken for 2 h at room temperature. Ten microliters of each phase was diluted in 490 μL of MeOH and analyzed by LC-MS/MS. Each compound was tested in triplicate. Log D was determined as the logarithm of the ratio of concentration of product in octanol and PBS, determined by mass signals.

PPARα transactivation (PPARα)	LXRβ transactivation (LXRβ)	LXRα transactivation (LXRα)	logD at 2 h [1]	SMILES
unable to induce	unable to induce	unable to induce	1.47	O=C(Nc1ccc(Cl)cc1)N[C@@H]1CN[C@H](c2nc(-c3ccccc3)no2)C1 [Compound 9]
unable to induce	unable to induce	unable to induce	1.25	O=C(NC1CCCCC1)N[C@@H]1CN[C@H](c2nc(-c3ccccc3)no2)C1 [Compound 10]
